In data set [1] the test system is normal human epidermal melanocytes (NHEM). The data set can be described thus: Inhibition of melanin synthesis in L-tyrosine-stimulated human epidermal melanocytes. In kind it is cell-based. Conditions: 300 μM; stimulation by L-tyrosine (1 mM); 240 hours; n=3. As for the experimental part: Human melanocytes are stimulated by L-tyrosine to induce an increase of the melanin synthesis and be able to measure an inhibition of this synthesis when a whitening agent is added.
Biological model: normal human epidermal melanocytes (NHEM), lightly pigmented, were cultured in medium M254 supplemented with PMA free HMGS-2; Insulin 5 ag/ml; Penicillin 50 U/ml; Streptomycin 50 ag/ml; Gentamycin 25 μg/ml (incubator: 37° C. and 5% CO2).
Culture and treatment: melanocytes were seeded in 24-well plates and cultured in culture medium for 24 hours. The medium was then replaced by culture medium containing the test compounds or not (stimulated control) in presence of the inducer (L-tyrosine at 1 mM). The cells were then incubated for 240 hours with 2 treatment renewals after 72 and 168 hours of incubation. A non-stimulated control was performed in parallel. All experimental conditions were performed in n=3.
Melanin assay: at the end of incubation, the culture supernatants were removed and the melanin was extracted by cell lysis using a 0.5 N NaOH solution. The optical density (OD) of each experimental point was measured at 405 nm and melanin quantity was calculated using melanin standards (standard curve 0.39 to 100 μg/ml melanin). Results were expressed in […] of melanin.

A further data set has as its system NHEM culture. As to the kind of experiment: Determination of the higher non-cytotoxic concentration on NHEM culture. In kind it is cell-based, human. As for the experimental part:
The compounds have been tested beforehand at different concentrations on the NHEM culture to determine the higher non-cytotoxic concentration to be used to evaluate the potential inhibition of melanin synthesis. The determined concentration was 300 μM for all compounds: 8, 16, 28a.

The subject of a further data set is human tyrosinase. The data set can be described thus: Inhibition of human tyrosinase in-tubo (HumanLike Tyrosinase Assay kit, Feldan). Conditions: 1.12 mM. The data set is classed as biochemical. As for the experimental part:
The efficacy of compound 8 was evaluated by the inhibition of human tyrosinase in-tubo and compared to the prior art compound deoxyarbutin.
The assay was performed with a ready-to-use kit from Feldan Inc (Canada): the HumanLike Tyrosinase Assay kit (ref A021-a-001Kit).
The protocol was performed as described in the instructions for use of the manufacturer. Briefly, this kit is intended for the determination of human tyrosinase activity in presence of different inhibitors. The kit measures the conversion of L-Tyrosine into a dopachrome complex absorbing at 490 nm. The time course of the assay is 20 minutes, after which the results are analyzed and compared.
The compound 8 and deoxyarbutin have been tested at a final concentration of 1.12 mM. The measured absorbances at 490 nm are reported in the table 1 and plotted in function of time in the FIG. 1.
Moreover for each compound the efficacy as tyrosinase inhibitor was calculated using the following formula: […]

The structures appear in SMILES notation. Values joined by “and” are separate entries in the source; they are usually repeats but may differ in a detail not shown here. Identical values can stand only once.

As for `Oc1ccc(OC2C(O)CCCC2(F)F)cc1` (racemic) [Compound 16], in data set [1], the “Melanin synthesis (μg/ml), single replicates” value (from here on “Melanin synthesis (μg/ml)”) is 7.9 μg/ml and 8.2 μg/ml (2×); the “Melanin synthesis, Mean” value came to 8.1 µg/mL. In the data set with NHEM culture, this compound gave a higher non-cytotoxic concentration of 300 µM.

Turning to `Oc1ccc(O[C@@H]2[C@H](O)[C@@H](O)CCC2(F)F)cc1` [Compound 8], the “Melanin synthesis (μg/ml)” value in data set [1] was 9.2 μg/ml (2×) and 9.4 μg/ml. Further, in data set [1], the “Melanin synthesis, Mean” value was 9.3 µg/mL. The “Inhibitor efficacy (%)” value in the data set on human tyrosinase (T = 20 min) was found to be 32.0%. Further, in the data set with human tyrosinase (T = 20 min), the “times better efficacy than deoxyarbutin on human tyrosinase inhibition” value came to 3.4 times. Besides, the “OD at 490 nm” value in the data set with human tyrosinase (time 0 min) is 0.0000; in the data set on human tyrosinase (time 1 min), 0.0080; in the data set with human tyrosinase (time 2 min), 0.0170; in the data set on human tyrosinase (time 3 min), 0.0245; in the data set with human tyrosinase (time 4 min), 0.0345; in the data set on human tyrosinase (time 5 min), 0.0415. The “OD at 490 nm” value with human tyrosinase (time 6 min) was determined as 0.0505; with human tyrosinase (time 7 min), 0.0610; with human tyrosinase (time 8 min) it was 0.0675; in the data set on human tyrosinase (time 9 min), 0.0755; in the data set on human tyrosinase (time 10 min) it was 0.0845; in the data set with human tyrosinase (time 11 min), 0.0935. In addition, the “OD at 490 nm” value in the data set on human tyrosinase (time 12 min) was 0.1015; with human tyrosinase (time 13 min) it was 0.1090; in the data set with human tyrosinase (time 14 min), 0.1165; in the data set on human tyrosinase (time 15 min), 0.1255; with human tyrosinase (time 16 min), 0.1355; in the data set on human tyrosinase (time 17 min), 0.1405. In addition, the “OD at 490 nm” value in the data set with human tyrosinase (time 18 min) was 0.1495; with human tyrosinase (time 19 min), 0.1575; with human tyrosinase (time 20 min) it was 0.1665. Besides, the higher non-cytotoxic concentration in the data set with NHEM culture turned out to be 300 µM.

Take `N[C@@H]1CCCC(F)(F)[C@@H]1Oc1ccc(O)cc1` [Compound 28a]: in data set [1], the “Melanin synthesis (μg/ml)” value was 9.9 µg/mL and 10.5 µg/mL and 10.2 µg/mL; the “Melanin synthesis, Mean” value worked out at 10.2 µg/mL. The compound also registered a higher non-cytotoxic concentration in the data set with NHEM culture of 300 µM.

Take `Oc1ccc(OC2CCCCO2)cc1` (stereo not drawn) [Deoxyarbutin, deoxyarbutin, reference compound]: the “Inhibitor efficacy (%)” value in the data set with human tyrosinase (T = 20 min) is recorded as 9.4%. In addition, the “OD at 490 nm” value in the data set on human tyrosinase (time 0 min) is 0.0000; with human tyrosinase (time 1 min) it was 0.0100; with human tyrosinase (time 2 min), 0.0195; in the data set with human tyrosinase (time 3 min) it was 0.0290; in the data set on human tyrosinase (time 4 min) it was 0.0385; in the data set on human tyrosinase (time 5 min), 0.0480. Also, the “OD at 490 nm” value in the data set with human tyrosinase (time 6 min) amounted to 0.0585; with human tyrosinase (time 7 min), 0.0695; with human tyrosinase (time 8 min) it was 0.0800; in the data set on human tyrosinase (time 9 min), 0.0935; in the data set with human tyrosinase (time 10 min) it was 0.1035; in the data set with human tyrosinase (time 11 min), 0.1155. Besides, the “OD at 490 nm” value with human tyrosinase (time 12 min) is 0.1265; in the data set on human tyrosinase (time 13 min), 0.1385; with human tyrosinase (time 14 min) it was 0.1500; in the data set with human tyrosinase (time 15 min), 0.1615; in the data set with human tyrosinase (time 16 min), 0.1735; in the data set with human tyrosinase (time 17 min), 0.1846. The entries for the “OD at 490 nm” value in the data set on human tyrosinase (time 18 min), in the data set with human tyrosinase (time 19 min) and with human tyrosinase (time 20 min) were 0.1975, 0.2095 and 0.2220, respectively.
